Data on 1 compound can be found in patent US8383352B2, “Detection of maternal alcohol exposure” (Northwestern University, priority 2009, dated 2013).

Data set [1] concerns Dio3. The settings on record: in utero exposure to ethanol; Western blot, normalized to β-actin; pregnant Sprague-Dawley dams, last two weeks of gestation.
The next data set relates to Gsα. The settings on record: in utero exposure to ethanol; Western blot, normalized to β-actin; pregnant Sprague-Dawley dams, last two weeks of gestation.
The next data set has as its system TRα. The settings on record: in utero exposure to ethanol; Western blot, normalized to β-actin; pregnant Sprague-Dawley dams, last two weeks of gestation.
The next data set has as its system GR. To be noted: in utero exposure to ethanol; Western blot, normalized to β-actin; pregnant Sprague-Dawley dams, last two weeks of gestation.
Data set [2] has as its system Dio3. To be noted: fetal and adult frontal cortex and hippocampus; thyroid hormone levels inversely affected.

Turning to `CCO` [ethanol], the “Dio3 protein levels in placenta” value with Dio3 [1] is given as “up-regulation”. For the same compound, the “Gsα protein levels in placenta” value in the data set on Gsα is listed as “up-regulation”. In addition, the “TRα protein levels in placenta” value in the data set on TRα is recorded as “down-regulation”. In addition, in the data set with GR, the “GR protein levels in placenta” value is listed as “down-regulation”. Also, the “Dio3 imprinting and total expression patterns” value in the data set with Dio3 [2] was “alters”.
